The values that follow come from patent US20090304692A1, “TRIAZINE COMPOUNDS AS PI3 KINASE AND MTOR INHIBITORS” (Wyeth, priority 2008, published 2009).

Like-named read-outs stand apart in the source and are kept apart here.

Test [1] has as its target Human mTOR (FLAG-TOR) (Homo sapiens, UniProt P42345). The experiment in a line: mTOR kinase assay (DELFIA format, purified enzyme). It is filed as biochemical. The settings on record: read-out: IC50 mTOR.
The test system of test [2] is human breast MDA-MB-361 tumor cell line. Briefly: In vitro cell culture growth assay (MTS), MDA-MB-361. It is filed as cell-based. The settings on record: Homo sapiens, MTS cell growth assay, three days after drug treatment, MDA-MB-361 cells, read-out: IC50 MDA-MB-361.
In test [3] the test system is human prostate PC3-mm2 tumor cell line. The experiment in a line: In vitro cell culture growth assay (MTS), PC3-mm2. The class given is cell-based. The note with it: Homo sapiens, PC3MM2, 72 h, MTS cell growth assay, three days after drug treatment, PC3-mm2 cells; read-out: IC50 PC3-mm2. (Tetrazolium assays rely on reduction of a dye to a coloured formazan, in cell work by metabolically active cells.)

Test [4] concerns the target PI3K-α (Homo sapiens, UniProt P42336). The experiment in a line: PI3K-alpha fluorescence polarization assay. (In general: Fluorescence polarisation rises when a labelled molecule tumbles more slowly, as on binding a larger partner.)
For test [5], the target named is PI3K-γ (Homo sapiens, UniProt P48736). The experiment in a line: PI3K-gamma fluorescence polarization assay.
Sequence of PI3K-γ (P48736 whole entry, species assumed): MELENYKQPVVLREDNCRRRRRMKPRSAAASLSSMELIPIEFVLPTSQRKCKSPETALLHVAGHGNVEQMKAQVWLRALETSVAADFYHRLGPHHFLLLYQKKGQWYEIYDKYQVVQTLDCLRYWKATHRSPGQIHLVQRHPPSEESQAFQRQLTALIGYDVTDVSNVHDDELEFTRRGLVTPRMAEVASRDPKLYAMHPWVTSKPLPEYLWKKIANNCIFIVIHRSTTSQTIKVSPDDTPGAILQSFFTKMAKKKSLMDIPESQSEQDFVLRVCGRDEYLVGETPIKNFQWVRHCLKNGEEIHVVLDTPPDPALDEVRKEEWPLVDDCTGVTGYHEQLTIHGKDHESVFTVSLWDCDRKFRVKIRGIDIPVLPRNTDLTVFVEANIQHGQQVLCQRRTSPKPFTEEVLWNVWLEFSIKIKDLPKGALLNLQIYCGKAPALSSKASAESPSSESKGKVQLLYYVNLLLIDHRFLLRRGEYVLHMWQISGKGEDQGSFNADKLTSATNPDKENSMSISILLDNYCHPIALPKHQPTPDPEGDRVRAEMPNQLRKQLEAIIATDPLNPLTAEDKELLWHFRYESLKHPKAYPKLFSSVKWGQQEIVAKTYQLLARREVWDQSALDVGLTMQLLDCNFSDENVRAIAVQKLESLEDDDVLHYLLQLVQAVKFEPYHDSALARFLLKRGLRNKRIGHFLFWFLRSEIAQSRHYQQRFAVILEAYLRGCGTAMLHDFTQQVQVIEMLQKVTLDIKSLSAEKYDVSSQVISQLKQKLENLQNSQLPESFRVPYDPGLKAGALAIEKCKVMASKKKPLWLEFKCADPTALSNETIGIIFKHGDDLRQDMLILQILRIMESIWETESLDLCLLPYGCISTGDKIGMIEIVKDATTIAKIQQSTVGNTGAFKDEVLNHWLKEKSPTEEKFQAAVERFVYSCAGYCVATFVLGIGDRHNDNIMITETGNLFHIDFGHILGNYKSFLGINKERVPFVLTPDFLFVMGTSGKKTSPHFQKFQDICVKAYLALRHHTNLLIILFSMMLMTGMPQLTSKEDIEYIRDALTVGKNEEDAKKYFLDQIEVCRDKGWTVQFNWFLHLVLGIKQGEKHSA

Sequence of PI3K-α (P42336 whole entry, species assumed): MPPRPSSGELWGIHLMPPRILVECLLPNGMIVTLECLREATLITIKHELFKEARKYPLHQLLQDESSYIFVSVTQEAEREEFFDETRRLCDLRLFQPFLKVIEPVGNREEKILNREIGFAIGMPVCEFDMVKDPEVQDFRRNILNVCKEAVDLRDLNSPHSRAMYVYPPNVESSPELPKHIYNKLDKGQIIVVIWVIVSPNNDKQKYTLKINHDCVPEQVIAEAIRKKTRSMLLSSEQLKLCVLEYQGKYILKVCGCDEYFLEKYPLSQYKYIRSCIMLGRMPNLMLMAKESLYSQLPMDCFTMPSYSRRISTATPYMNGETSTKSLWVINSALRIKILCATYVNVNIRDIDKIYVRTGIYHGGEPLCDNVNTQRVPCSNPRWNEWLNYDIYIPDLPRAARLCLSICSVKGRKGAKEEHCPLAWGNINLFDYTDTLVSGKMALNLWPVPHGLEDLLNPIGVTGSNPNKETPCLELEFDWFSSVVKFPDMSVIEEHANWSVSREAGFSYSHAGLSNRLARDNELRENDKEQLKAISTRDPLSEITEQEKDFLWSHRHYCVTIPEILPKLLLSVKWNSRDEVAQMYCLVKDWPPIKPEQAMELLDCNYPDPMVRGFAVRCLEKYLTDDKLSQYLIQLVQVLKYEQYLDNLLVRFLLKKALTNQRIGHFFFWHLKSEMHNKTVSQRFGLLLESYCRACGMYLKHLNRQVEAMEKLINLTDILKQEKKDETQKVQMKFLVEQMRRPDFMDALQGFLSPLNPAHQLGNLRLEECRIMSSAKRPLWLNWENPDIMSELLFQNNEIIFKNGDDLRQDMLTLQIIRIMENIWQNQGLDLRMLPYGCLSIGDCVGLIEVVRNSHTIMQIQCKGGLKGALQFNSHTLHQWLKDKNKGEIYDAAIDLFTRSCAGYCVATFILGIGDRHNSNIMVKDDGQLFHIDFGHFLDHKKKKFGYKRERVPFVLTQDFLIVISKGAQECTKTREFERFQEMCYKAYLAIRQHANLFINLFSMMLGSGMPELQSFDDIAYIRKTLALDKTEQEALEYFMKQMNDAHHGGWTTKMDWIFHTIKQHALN
Sequence of PI3K-α (P27986 whole entry partner, species assumed): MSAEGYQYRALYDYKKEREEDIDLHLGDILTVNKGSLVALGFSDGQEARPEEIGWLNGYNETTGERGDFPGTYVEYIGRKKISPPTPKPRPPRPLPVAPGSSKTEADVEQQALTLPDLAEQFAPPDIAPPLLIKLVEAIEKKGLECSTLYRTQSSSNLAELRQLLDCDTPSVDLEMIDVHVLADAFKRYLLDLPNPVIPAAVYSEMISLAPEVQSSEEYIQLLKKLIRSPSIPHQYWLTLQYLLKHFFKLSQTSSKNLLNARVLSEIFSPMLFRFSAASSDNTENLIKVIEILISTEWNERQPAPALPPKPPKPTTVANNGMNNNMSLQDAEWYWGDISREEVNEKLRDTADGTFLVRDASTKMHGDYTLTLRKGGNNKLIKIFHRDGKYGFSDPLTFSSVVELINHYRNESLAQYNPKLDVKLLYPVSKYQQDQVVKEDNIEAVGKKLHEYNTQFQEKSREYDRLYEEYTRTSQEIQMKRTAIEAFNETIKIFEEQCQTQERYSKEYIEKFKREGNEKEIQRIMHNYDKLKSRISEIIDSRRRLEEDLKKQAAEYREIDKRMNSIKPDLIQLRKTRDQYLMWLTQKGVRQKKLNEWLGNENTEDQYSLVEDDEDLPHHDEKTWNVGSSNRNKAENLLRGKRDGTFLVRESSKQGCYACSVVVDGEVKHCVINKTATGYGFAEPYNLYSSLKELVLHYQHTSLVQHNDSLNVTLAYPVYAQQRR
Sequence of Human mTOR (FLAG-TOR) (P42345 1360-2549 limits assumed): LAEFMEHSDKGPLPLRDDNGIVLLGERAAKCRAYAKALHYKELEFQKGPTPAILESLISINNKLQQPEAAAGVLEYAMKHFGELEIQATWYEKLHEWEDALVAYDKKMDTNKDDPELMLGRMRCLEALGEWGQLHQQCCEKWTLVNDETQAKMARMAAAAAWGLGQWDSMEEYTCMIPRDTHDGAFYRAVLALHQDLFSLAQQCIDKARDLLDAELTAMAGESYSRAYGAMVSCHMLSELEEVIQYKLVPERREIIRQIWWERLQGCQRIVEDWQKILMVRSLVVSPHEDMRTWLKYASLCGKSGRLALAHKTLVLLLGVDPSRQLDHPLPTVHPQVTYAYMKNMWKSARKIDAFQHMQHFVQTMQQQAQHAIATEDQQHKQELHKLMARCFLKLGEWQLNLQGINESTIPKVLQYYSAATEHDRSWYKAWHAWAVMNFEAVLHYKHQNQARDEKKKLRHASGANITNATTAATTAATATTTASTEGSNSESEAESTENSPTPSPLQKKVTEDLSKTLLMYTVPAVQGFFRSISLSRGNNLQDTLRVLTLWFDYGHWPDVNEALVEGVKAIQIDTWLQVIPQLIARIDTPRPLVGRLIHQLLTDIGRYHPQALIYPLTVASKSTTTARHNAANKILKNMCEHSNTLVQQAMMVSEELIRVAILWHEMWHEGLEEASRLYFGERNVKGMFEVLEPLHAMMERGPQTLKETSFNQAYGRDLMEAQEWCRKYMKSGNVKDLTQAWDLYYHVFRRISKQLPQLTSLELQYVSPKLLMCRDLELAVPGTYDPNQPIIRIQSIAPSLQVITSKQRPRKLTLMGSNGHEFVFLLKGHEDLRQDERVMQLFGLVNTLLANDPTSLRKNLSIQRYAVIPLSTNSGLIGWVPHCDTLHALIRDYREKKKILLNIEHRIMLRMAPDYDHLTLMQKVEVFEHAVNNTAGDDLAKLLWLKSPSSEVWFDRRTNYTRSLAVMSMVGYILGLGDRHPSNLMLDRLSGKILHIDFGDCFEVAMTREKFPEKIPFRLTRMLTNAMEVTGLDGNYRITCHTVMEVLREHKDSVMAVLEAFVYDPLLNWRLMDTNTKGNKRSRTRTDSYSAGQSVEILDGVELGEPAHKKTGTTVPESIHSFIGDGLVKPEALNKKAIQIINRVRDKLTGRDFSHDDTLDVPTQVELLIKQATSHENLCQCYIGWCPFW

A word on the IC50: it is the point on the concentration scale where inhibition reaches its midpoint. Regarding `CN(C)C1CCN(C(=O)c2ccc(NC(=O)Nc3ccc(-c4nc(N5CCCCC5)nc(N5CCOCC5)n4)cc3)cc2)CC1` [Example 598, 1-(4-{[4-(dimethylamino)piperidin-1-yl]carbonyl}phenyl)-3-[4-(4-morpholin-4-yl-6-piperidin-1-yl-1,3,5-triazin-2-yl)phenyl]urea], the IC50 was 10 nM in test [1]; 22 nM in test [2] (MDA-MB-361, 72 h); 214 nM in test [3]; 5.5 nM in test [4] (read-out: IC50 PI3Kα); 40 nM in test [5] (read-out: IC50 PI3Kγ).
As to `CN(C)C1CCN(C(=O)c2ccc(NC(=O)Nc3ccc(-c4nc(N5CCCC5)nc(N5CCOCC5)n4)cc3)cc2)CC1` [Example 602, 1-(4-{[4-(dimethylamino)piperidin-1-yl]carbonyl}phenyl)-3-[4-(4-morpholin-4-yl-6-pyrrolidin-1-yl-1,3,5-triazin-2-yl)phenyl]urea], the IC50 was 11 nM in test [1]; 17 nM in test [2] (MDA-MB-361, 72 h); 122 nM in test [3]; 7 nM in test [4] (read-out: IC50 PI3Kα); 46.5 nM in test [5] (read-out: IC50 PI3Kγ).
With `CC(C)N1CCN(C(=O)c2ccc(NC(=O)Nc3ccc(-c4nc(N5CCCC5)nc(N5CCOCC5)n4)cc3)cc2)CC1` [Example 603, 1-(4-{[4-(1-methylethyl)piperazin-1-yl]carbonyl}phenyl)-3-[4-(4-morpholin-4-yl-6-pyrrolidin-1-yl-1,3,5-triazin-2-yl)phenyl]urea], the IC50 in test [1] was 17 nM; in test [2] (MDA-MB-361, 72 h) it was 17 nM; in test [3] it was 137 nM; in test [4] (read-out: IC50 PI3Kα), 8.5 nM; in test [5] (read-out: IC50 PI3Kγ), 50.5 nM.
For the molecule `CN(C)CCN(C)C(=O)c1ccc(NC(=O)Nc2ccc(-c3nc(N4CCCC4)nc(N4CCOCC4)n3)cc2)cc1` [Example 604, N-[2-(dimethylamino)ethyl]-N-methyl-4-({[4-(4-morpholin-4-yl-6-pyrrolidin-1-yl-1,3,5-triazin-2-yl)phenyl]carbamoyl}amino)benzamide], the IC50 in test [1] was 10 nM; in test [2] (72 h) it was 4 nM; in test [3], 73 nM; in test [4] (read-out: IC50 PI3Kα) it was 3.5 nM; in test [5] (read-out: IC50 PI3Kγ), 55.5 nM.
The matching figures for `CN(C)CCN(C)C(=O)c1ccc(NC(=O)Nc2ccc(-c3nc(N4CCCCC4)nc(N4CCOCC4)n3)cc2)cc1` [Example 605, N-[2-(dimethylamino)ethyl]-N-methyl-4-({[4-(4-morpholin-4-yl-6-piperidin-1-yl-1,3,5-triazin-2-yl)phenyl]carbamoyl}amino)benzamide]: 3 nM, 7 nM, 92 nM, 2.2 nM and 46 nM.
With `CCN1CCN(C(=O)c2ccc(NC(=O)Nc3ccc(-c4nc(N5CCCC5)nc(N5CCOCC5)n4)cc3)cc2)CC1` [Example 606, 1-{4-[(4-ethylpiperazin-1-yl)carbonyl]phenyl}-3-[4-(4-morpholin-4-yl-6-pyrrolidin-1-yl-1,3,5-triazin-2-yl)phenyl]urea], the half-maximal inhibitory concentration (IC50) in test [1] came out at 26 nM; in test [2] (MDA-MB-361, 72 h) it was 28 nM; in test [3], 173 nM; in test [4] (read-out: IC50 PI3Kα), 12 nM; in test [5] (read-out: IC50 PI3Kγ), 87 nM.
Take `CN1CCN(C(=O)c2ccc(NC(=O)Nc3ccc(-c4nc(N5CCCC5)nc(N5CCOCC5)n4)cc3)cc2)CC1` [Example 607, 1-{4-[(4-methylpiperazin-1-yl)carbonyl]phenyl}-3-[4-(4-morpholin-4-yl-6-pyrrolidin-1-yl-1,3,5-triazin-2-yl)phenyl]urea]: the IC50 in test [1] is 19 nM; in test [2] (MDA-MB-361, 72 h), 24 nM; in test [3], 213 nM; in test [4] (read-out: IC50 PI3Kα), 12 nM; in test [5] (read-out: IC50 PI3Kγ), 94 nM.
On to `CN(C)CCNC(=O)c1ccc(NC(=O)Nc2ccc(-c3nc(N4CCCC4)nc(N4CCOCC4)n3)cc2)cc1` [Example 608, N-[2-(dimethylamino)ethyl]-4-({[4-(4-morpholin-4-yl-6-pyrrolidin-1-yl-1,3,5-triazin-2-yl)phenyl]carbamoyl}amino)benzamide], for which the IC50 in test [1] is 5 nM; in test [2] (72 h), 52 nM; in test [3], 298 nM; in test [4] (read-out: IC50 PI3Kα), 9 nM; in test [5] (read-out: IC50 PI3Kγ) it was 107 nM.
On to `C[C@H]1COCCN1c1nc(-c2ccc(NC(=O)Nc3ccncc3)cc2)nc(N2CCOC[C@@H]2C)n1` [Example 609, 1-(4-{4,6-bis[(3S)-3-methylmorpholin-4-yl]-1,3,5-triazin-2-yl}phenyl)-3-pyridin-4-ylurea], for which the IC50 is 3 nM in test [1]; 24 nM in test [2] (MDA-MB-361, 72 h); 26 nM in test [3]; 11.5 nM in test [4]; 93.5 nM in test [5].
In the case of `CN(C)CCCNC(=O)c1ccc(NC(=O)Nc2ccc(-c3nc(N4CCCCC4)nc(N4CCOCC4)n3)cc2)cc1` [Example 610, N-[3-(dimethylamino)propyl]-4-({[4-(4-morpholin-4-yl-6-piperidin-1-yl-1,3,5-triazin-2-yl)phenyl]carbamoyl}amino)benzamide], the IC50 worked out at 5 nM in test [1]; 28 nM in test [2] (72 h); 297 nM in test [3]; 3.5 nM in test [4] (read-out: IC50 PI3Kα); 50.5 nM in test [5] (read-out: IC50 PI3Kγ).
For the molecule `COCCNC(=O)c1ccc(NC(=O)Nc2ccc(-c3nc(N4CCCCC4)nc(N4CCOCC4)n3)cc2)cc1` [Example 611, N-(2-methoxyethyl)-4-({[4-(4-morpholin-4-yl-6-piperidin-1-yl-1,3,5-triazin-2-yl)phenyl]carbamoyl}amino)benzamide], the concentration for half-maximal inhibition (IC50) was 13 nM in test [1]; 194 nM in test [2] (72 h); 581 nM in test [3]; 18.5 nM in test [4] (read-out: IC50 PI3Kα); 152 nM in test [5] (read-out: IC50 PI3Kγ).
`O=C(Nc1ccc(C(=O)N2CCCC2)cc1)Nc1ccc(-c2nc(N3CCCC3)nc(N3CCOCC3)n2)cc1` [Example 612, 1-[4-(4-morpholin-4-yl-6-pyrrolidin-1-yl-1,3,5-triazin-2-yl)phenyl]-3-[4-(pyrrolidin-1-ylcarbonyl)phenyl]urea]: the IC50 in test [1] was found to be 61 nM; in test [2] (MDA-MB-361, 72 h), 38 nM; in test [3], 227 nM; in test [4] (read-out: IC50 PI3Kα) it was 5.5 nM; in test [5] (read-out: IC50 PI3Kγ), 67 nM.
For the molecule `CCN1CCN(C(=O)c2ccc(NC(=O)Nc3ccc(-c4nc(N5CCOC[C@@H]5C)nc(N5CCOC[C@@H]5C)n4)cc3)cc2)CC1` [Example 613, 1-(4-{4,6-bis[(3S)-3-methylmorpholin-4-yl]-1,3,5-triazin-2-yl}phenyl)-3-{4-[(4-ethylpiperazin-1-yl)carbonyl]phenyl}urea], the IC50 turned out to be 1 nM in test [1]; 6 nM in test [2] (72 h); 21 nM in test [3]; 3.8 nM in test [4] (read-out: IC50 PI3Kα); 53.5 nM in test [5] (read-out: IC50 PI3Kγ).
With `CC(C)N1CCN(C(=O)c2ccc(NC(=O)Nc3ccc(-c4nc(N5CCOC[C@@H]5C)nc(N5CCOC[C@@H]5C)n4)cc3)cc2)CC1` [Example 614, 1-(4-{4,6-bis[(3S)-3-methylmorpholin-4-yl]-1,3,5-triazin-2-yl}phenyl)-3-(4-{[4-(1-methylethyl)piperazin-1-yl]carbonyl}phenyl)urea], the IC50 was 1 nM in test [1]; 4 nM in test [2] (72 h); 15 nM in test [3]; 2.7 nM in test [4] (read-out: IC50 PI3Kα); 32.5 nM in test [5] (read-out: IC50 PI3Kγ).
The matching figures for `COC(=O)c1ccc(NC(=O)Nc2ccc(-c3nc(N4CCOCC4)nc(N4CCOC[C@@H]4C)n3)cc2)cc1` [Example 615, methyl 4-{[(4-{4-[(3S)-3-methylmorpholin-4-yl]-6-morpholin-4-yl-1,3,5-triazin-2-yl}phenyl)carbamoyl]amino}benzoate]: 1 nM, 88 nM, 123 nM, 26.5 nM and 116 nM.
As to `C[C@H]1COCCN1c1nc(-c2ccc(NC(=O)Nc3ccc(C(=O)N4CCC(N(C)C)CC4)cc3)cc2)nc(N2CCOC[C@@H]2C)n1` [Example 616, 1-(4-{4,6-bis[(3S)-3-methylmorpholin-4-yl]-1,3,5-triazin-2-yl}phenyl)-3-(4-{[4-(dimethylamino)piperidin-1-yl]carbonyl}phenyl)urea], the IC50 in test [1] was 1 nM; in test [2] (MDA-MB-361, 72 h) it was 4 nM; in test [3], 21 nM; in test [4] (read-out: IC50 PI3Kα) it was 4 nM; in test [5] (read-out: IC50 PI3Kγ), 58.5 nM.
With `C[C@H]1COCCN1c1nc(-c2ccc(NC(=O)Nc3ccc(C(=O)N4CCN(C)CC4)cc3)cc2)nc(N2CCOCC2)n1` [Example 617, 1-(4-{4-[(3S)-3-methylmorpholin-4-yl]-6-morpholin-4-yl-1,3,5-triazin-2-yl}phenyl)-3-{4-[(4-methylpiperazin-1-yl)carbonyl]phenyl}urea], the IC50 turned out to be 1 nM in test [1]; 4 nM in test [2] (MDA-MB-361, 72 h); 17 nM in test [3]; 2.5 nM in test [4] (read-out: IC50 PI3Kα); 27 nM in test [5] (read-out: IC50 PI3Kγ).
Turning to `CC(C)N1CCN(C(=O)c2ccc(NC(=O)Nc3ccc(-c4nc(N5CCOCC5)nc(N5CCOC[C@@H]5C)n4)cc3)cc2)CC1` [Example 618, 1-(4-{[4-(1-methylethyl)piperazin-1-yl]carbonyl}phenyl)-3-(4-{4-[(3S)-3-methylmorpholin-4-yl]-6-morpholin-4-yl-1,3,5-triazin-2-yl}phenyl)urea], the IC50 in test [1] worked out at 1 nM; in test [2] (MDA-MB-361, 72 h) it was 2 nM; in test [3], 13 nM; in test [4] (read-out: IC50 PI3Kα), 2 nM; in test [5] (read-out: IC50 PI3Kγ) it was 18.5 nM.
